Measured values: PubChem BioAssay (NCI)
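At the GI50, growth is halved. TGI marks complete inhibition of growth.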

Legend:
Assay in all cases: growth of human tumour cells (NCI), 384-well format
[1] = test system: A498 renal
[2] = test system: A549 NSCLC
[3] = test system: ACHN renal
[4] = test system: BT-549 breast
[5] = test system: CAKI-1 renal
[6] = test system: COLO 205 colon
[7] = test system: DU-145 prostate
[8] = test system: EKVX NSCLC
[9] = test system: HCC-2998 colon
[10] = test system: HCT-116 colon
[11] = test system: HCT-15 colon
[12] = test system: HL-60(TB) leukemia
[13] = test system: HOP-62 NSCLC
[14] = test system: HT29 colon
[15] = test system: IGROV1 ovarian
[16] = test system: K-562 leukemia
[17] = test system: KM12 colon
[18] = test system: LOX IMVI melanoma
[19] = test system: M14 melanoma
[20] = test system: MALME-3M melanoma
[21] = test system: MCF7 breast
[22] = test system: MDA-MB-231 breast
[23] = test system: MDA-MB-435 melanoma
[24] = test system: MDA-MB-468 breast
[25] = test system: MOLT-4 leukemia
[26] = test system: NCI-H226 lung
[27] = test system: NCI-H23 lung
[28] = test system: NCI-H322M lung
[29] = test system: NCI-H522 lung
[30] = test system: NCI/ADR-RES ovarian
[31] = test system: OVCAR-3 ovarian
[32] = test system: OVCAR-5 ovarian
[33] = test system: OVCAR-8 ovarian
[34] = test system: RPMI-8226 leukemia
[35] = test system: SF-268 CNS
[36] = test system: SF-295 CNS
[37] = test system: SK-MEL-2 melanoma
[38] = test system: SK-MEL-28 melanoma
[39] = test system: SK-MEL-5 melanoma
[40] = test system: SK-OV-3 ovarian
[41] = test system: SN12C renal
[42] = test system: SR leukemia
[43] = test system: SW-620 colon
[44] = test system: T-47D breast
[45] = test system: U251 glioblastoma
[46] = test system: UACC-257 melanoma
[47] = test system: UO-31 renal

Q: What does the source list for `NS(=O)(=O)NCCNc1nonc1C(=Nc1ccc(F)c(Br)c1)NO`?
A: GI50 [1]: 4.27 µM; TGI [1]: > 80.2 µM; GI50 [2]: 30.9 µM; TGI [2]: > 100 µM; GI50 [3]: 36.6 µM; TGI [3]: > 100 µM; GI50 [4]: 5.97 µM; TGI [4]: > 56.3 µM; GI50 [5]: 5.66 µM; TGI [5]: > 100 µM; GI50 [6]: 21.8 µM; TGI [6]: > 60.6 µM; GI50 [7]: 48.2 µM; TGI [7]: > 100 µM; GI50 [8]: 31.8 µM; TGI [8]: > 100 µM; GI50 [9]: 22.5 µM; TGI [9]: 51.7 µM; GI50 [10]: 36.6 µM; TGI [10]: > 100 µM; GI50 [11]: 51.6 µM; TGI [11]: > 100 µM; GI50 [12]: 18.9 µM; TGI [12]: 33.2 µM; GI50 [13]: 39.9 µM; TGI [13]: > 100 µM; GI50 [14]: 41 µM; TGI [14]: > 100 µM; GI50 [15]: 37.4 µM; TGI [15]: > 100 µM; GI50 [16]: 27.8 µM; TGI [16]: > 100 µM; GI50 [17]: 8.9 µM; TGI [17]: > 100 µM; GI50 [18]: 34.5 µM; TGI [18]: > 100 µM; GI50 [19]: 38.9 µM; TGI [19]: > 100 µM; GI50 [20]: 30.5 µM; TGI [20]: > 100 µM; GI50 [21]: 38.8 µM; TGI [21]: > 100 µM; GI50 [22]: 67.2 µM; TGI [22]: > 100 µM; GI50 [23]: 42.5 µM; TGI [23]: > 100 µM; GI50 [24]: 14.6 µM; TGI [24]: 33.1 µM; GI50 [25]: 15.9 µM; TGI [25]: 29.8 µM; GI50 [26]: 20.8 µM; TGI [26]: > 84.4 µM; GI50 [27]: 27.1 µM; TGI [27]: > 100 µM; GI50 [28]: 34.2 µM; TGI [28]: > 100 µM; GI50 [29]: 16.5 µM; TGI [29]: 47.7 µM; GI50 [30]: > 100 µM; TGI [30]: > 100 µM; GI50 [31]: 24 µM; TGI [31]: 76.8 µM; GI50 [32]: 49.9 µM; TGI [32]: > 100 µM; GI50 [33]: 46.9 µM; TGI [33]: > 100 µM; GI50 [34]: 17.6 µM; TGI [34]: 35.2 µM; GI50 [35]: 33.9 µM; TGI [35]: > 100 µM; GI50 [36]: 11.7 µM; TGI [36]: > 78.6 µM; GI50 [37]: 20.1 µM; TGI [37]: 47.1 µM; GI50 [38]: 42.7 µM; TGI [38]: > 100 µM; GI50 [39]: 35.9 µM; TGI [39]: > 92.6 µM; GI50 [40]: 10.9 µM; TGI [40]: > 100 µM; GI50 [41]: 35.2 µM; TGI [41]: > 100 µM; GI50 [42]: 14.6 µM; TGI [42]: 28.9 µM; GI50 [43]: 42.2 µM; TGI [43]: > 100 µM; GI50 [44]: 23.9 µM; TGI [44]: > 74.5 µM; GI50 [45]: 33.9 µM; TGI [45]: > 100 µM; GI50 [46]: 28.7 µM; TGI [46]: > 82.6 µM; GI50 [47]: 36 µM; TGI [47]: > 100 µM

Q: For `CC1(N)CCN(c2cnc(-c3cccc(Cl)c3Cl)c(N)n2)CC1`, which GI50 [1] is on record?
A: The GI50 was 4.27 µM.

Q: And the TGI [1]?
A: The TGI was 19.7 µM.

Q: And the GI50 [2]?
A: The GI50 was 30.1 µM.

Q: And the TGI [2]?
A: The TGI was greater than 100 µM.

Q: And the GI50 [3]?
A: Its GI50 is 10.5 µM.

Q: And the TGI [3]?
A: The TGI was 60.6 µM.

Q: What about the GI50 [4] of the same molecule?
A: The GI50 was 10.6 µM.

Q: And the TGI [4]?
A: Its TGI is 24 µM.

Q: What about the GI50 [5] of the same molecule?
A: The GI50 was 2.74 µM.

Q: What about the TGI [5] of the same molecule?
A: The TGI was 16.9 µM.

Q: And the GI50 [6]?
A: Its GI50 is 21.3 µM.

Q: What about the TGI [6] of the same molecule?
A: The TGI was 41.5 µM.

Q: What about the GI50 [7] of the same molecule?
A: Its GI50 is 47 µM.

Q: And the TGI [7]?
A: The TGI was greater than 100 µM.

Q: And the GI50 [8]?
A: The GI50 was 8.83 µM.

Q: What about the TGI [8] of the same molecule?
A: Its TGI is 30.8 µM.

Q: What about the GI50 [9] of the same molecule?
A: The GI50 was 16 µM.

Q: What about the TGI [9] of the same molecule?
A: Its TGI is 29.8 µM.

Q: What about the GI50 [10] of the same molecule?
A: The GI50 was 17.2 µM.

Q: And the TGI [10]?
A: The TGI was 32.1 µM.

Q: What about the GI50 [11] of the same molecule?
A: Its GI50 is 16.6 µM.

Q: And the TGI [11]?
A: The TGI was 33.5 µM.

Q: And the GI50 [12]?
A: Its GI50 is 23.4 µM.

Q: What about the TGI [12] of the same molecule?
A: Its TGI is 38.1 µM.

Q: And the GI50 [13]?
A: The GI50 was 24.3 µM.

Q: And the TGI [13]?
A: Its TGI is greater than 74 µM.

Q: What about the GI50 [14] of the same molecule?
A: The GI50 was 18 µM.

Q: And the TGI [14]?
A: The TGI was 34.7 µM.

Q: And the GI50 [15]?
A: Its GI50 is 8.4 µM.

Q: And the TGI [15]?
A: Its TGI is 27 µM.

Q: And the GI50 [16]?
A: Its GI50 is 0.783 µM.

Q: And the TGI [16]?
A: The TGI was 14.4 µM.

Q: What about the GI50 [17] of the same molecule?
A: The GI50 was 6.2 µM.

Q: And the TGI [17]?
A: Its TGI is 20 µM.

Q: And the GI50 [18]?
A: The GI50 was 17.1 µM.

Q: What about the TGI [18] of the same molecule?
A: The TGI was 31 µM.

Q: What about the GI50 [19] of the same molecule?
A: Its GI50 is 17.6 µM.

Q: And the TGI [19]?
A: Its TGI is 31.5 µM.

Q: And the GI50 [20]?
A: The GI50 was 14.8 µM.

Q: What about the TGI [20] of the same molecule?
A: Its TGI is 28 µM.

Q: And the GI50 [21]?
A: The GI50 was 15.5 µM.

Q: And the TGI [21]?
A: Its TGI is 29.7 µM.

Q: And the GI50 [22]?
A: Its GI50 is 20.2 µM.

Q: What about the TGI [22] of the same molecule?
A: Its TGI is 49.6 µM.

Q: What about the GI50 [23] of the same molecule?
A: Its GI50 is 22.8 µM.

Q: What about the TGI [23] of the same molecule?
A: The TGI was 48 µM.

Q: And the GI50 [24]?
A: Its GI50 is 0.898 µM.

Q: What about the TGI [24] of the same molecule?
A: Its TGI is 5.96 µM.

Q: What about the GI50 [25] of the same molecule?
A: The GI50 was 16.3 µM.

Q: And the TGI [25]?
A: Its TGI is 30.7 µM.

Q: And the GI50 [26]?
A: The GI50 was 8.68 µM.

Q: What about the TGI [26] of the same molecule?
A: The TGI was 46.6 µM.

Q: What about the GI50 [27] of the same molecule?
A: The GI50 was 3.66 µM.

Q: What about the TGI [27] of the same molecule?
A: Its TGI is 23.4 µM.

Q: What about the GI50 [28] of the same molecule?
A: The GI50 was 3.73 µM.

Q: What about the TGI [28] of the same molecule?
A: The TGI was 47.2 µM.

Q: What about the GI50 [29] of the same molecule?
A: The GI50 was 2.64 µM.

Q: And the TGI [29]?
A: Its TGI is 19.2 µM.

Q: And the GI50 [30]?
A: The GI50 was 17.9 µM.

Q: And the TGI [30]?
A: Its TGI is greater than 71.1 µM.

Q: What about the GI50 [31] of the same molecule?
A: The GI50 was 13.6 µM.

Q: What about the TGI [31] of the same molecule?
A: The TGI was 45.3 µM.

Q: And the GI50 [32]?
A: Its GI50 is 15.7 µM.

Q: What about the TGI [32] of the same molecule?
A: Its TGI is 47.6 µM.

Q: And the GI50 [33]?
A: Its GI50 is 27.9 µM.

Q: And the TGI [33]?
A: The TGI was greater than 100 µM.

Q: What about the GI50 [34] of the same molecule?
A: Its GI50 is 13.9 µM.

Q: What about the TGI [34] of the same molecule?
A: The TGI was 28.9 µM.

Q: And the GI50 [35]?
A: Its GI50 is 18.6 µM.

Q: What about the TGI [35] of the same molecule?
A: Its TGI is 53.4 µM.

Q: And the GI50 [36]?
A: Its GI50 is 21.5 µM.

Q: And the TGI [36]?
A: Its TGI is greater than 55.2 µM.

Q: And the GI50 [37]?
A: The GI50 was 13.7 µM.

Q: And the TGI [37]?
A: The TGI was 26.6 µM.

Q: And the GI50 [38]?
A: The GI50 was 16.7 µM.

Q: What about the TGI [38] of the same molecule?
A: The TGI was 30.5 µM.

Q: And the GI50 [39]?
A: The GI50 was 15.3 µM.

Q: And the TGI [39]?
A: Its TGI is 28.7 µM.

Q: What about the GI50 [40] of the same molecule?
A: Its GI50 is 10.2 µM.

Q: And the TGI [40]?
A: The TGI was 24.9 µM.

Q: And the GI50 [41]?
A: The GI50 was 5.63 µM.

Q: What about the TGI [41] of the same molecule?
A: Its TGI is 42.7 µM.

Q: What about the GI50 [42] of the same molecule?
A: Its GI50 is 7.14 µM.

Q: And the TGI [42]?
A: The TGI was 20.3 µM.

Q: What about the GI50 [43] of the same molecule?
A: The GI50 was 7.58 µM.

Q: And the TGI [43]?
A: Its TGI is greater than 50.4 µM.

Q: What about the GI50 [44] of the same molecule?
A: The GI50 was 13.3 µM.

Q: And the TGI [44]?
A: Its TGI is 27.9 µM.

Q: And the GI50 [45]?
A: Its GI50 is 13.5 µM.

Q: And the TGI [45]?
A: The TGI was 27.4 µM.

Q: What about the GI50 [46] of the same molecule?
A: Its GI50 is 16.4 µM.

Q: And the TGI [46]?
A: Its TGI is 30.1 µM.

Q: And the GI50 [47]?
A: Its GI50 is 14.2 µM.

Q: What about the TGI [47] of the same molecule?
A: Its TGI is greater than 100 µM.
